Test results reported in patent publication US6589564B2, “Use of magnesium based products for the treatment of neoplastic diseases” (priority 1994, dated 2003).
Where two headings read alike, the source gives them in different places.

Experiments:
ulcerative colitis = tested on: ulcerative colitis
Procedure: The treatment comprised the parenteral administration of 6 g of magnesium pyrophosphate (489 mg of Mg^++, i.e., 8.89 mg of Mg^++/kg body weight daily), diluted into 500 cm^3 of physiologic solution, and the infusion was adjusted to supply the patient with 80 mg of Mg^++ per hour for 6 hours. […] of orally administered vitamin B6 were added in divided doses, to improve the magnesium uptake.

rheumatoid arthritis = conditions: for ESR: before therapy 55, normal range 1-15
Procedure: The magnesium therapy, that the patient started in a disease remission interval, consisted of daily administations of 6 g of magnesium pyrophosphate (equivalent to 489 mg of Mg^++, corresponding to 8.1 mg of Mg^++/kg body weight daily), by infusion in 500 cm^3 of physiologic solution. The infusion rate was adjusted to supply 80 mg of Mg^++ per hour for about 6 hours. Vitamin B6 was associated with magnesium in the 2.5:1 ratio, i.e. in an amount of 1200 mg daily in divided doses, in order to improve the magnesium uptake. Suitable analgesic and anti-inflammatory drugs (FANS) were prescribed to soothe the articulation pains
At this point the parenteral treatment was suspended and an oral therapy started with following dosage: 6 g of magnesium pyrophosphate daily in divided doses (i.e., 488 mg of Mg^++ daily, corresponding to 8.1 mg of Mg^++/kg body weight daily), as well as […] of vitamin B6 orally, also in divided doses.

[1] = tested on: infiltrating ulcerated adenocarcinoma (rectum)
Procedure: The patient refused any therapy for a month and then started a magnesium treatment consisting of a daily administration of 500 cm^3 of physiologic solution, containing 6 g of magnesium pyrophosphate (i.e., 489 mg of Mg^++ daily, that is equivalent to about 9.7 mg of Mg^++/kg body weight daily). The infusion rate was adjusted to supply the patient with 80 mg of magnesium ions per hour for about 6 hours. Furthermore, a daily amount of 1200 mg of vitamin B6 was associated (vitamin B6:Mg^++=2.5:1), in four separate administrations.
After one month of intravenous treatment, the therapy was continued orally, with 6 g of magnesium pyrophosphate daily (i.e., 488 mg of Mg^++ daily, corresponding to 9.7 mg of Mg^++/kg body weight daily), associated with […] of vitamin B6 in divided doses.

pemphigus vulgaris = tested on: pemphigus vulgaris
Procedure: A patient was affected since three years by a pemphigus vulgaris, that caused soft vesicles to form on the patient's face and scalp. The vesicles broke after forming, and gave rise to circular erosions, that later were covered by scabs. Then, the said lesions appeared also on the patient's trunk and oral mucosa.
The therapy consisted in daily administering 9 g of magnesium pyrophosphate (i.e., 733 mg of Mg^++, corresponding to 9.16 mg/kg body weight daily of magnesium ions), dissolved into 500 cm^3 of a physiologic solution. The infusion rate was adjusted to supply 80 mg of Mg^++ per hour for about 9 hours.
Moreover, 1800 mg of vitamin B6 were administered daily, in divided doses.

[2] = after one further month (three months)
[3] = end of fourth month, negative normally, before therapy positive

O=P([O-])([O-])OP(=O)([O-])[O-].[Mg+2].[Mg+2] [magnesium pyrophosphate]
colonscopy, last 50 cm of the colon mucosa (ulcerative colitis; [2]): appeared normal
histology test of colon mucosa and submucosa (ulcerative colitis; [2]): colon mucosa and submucosa were normal and any inflammatory infiltration had disappeared
abdominal pains and diarrhoea (ulcerative colitis; after one further month (three months), same dosage): no more abdominal pains nor diarrhoea
colonscopy, last 50 cm of the colon mucosa (ulcerative colitis; end of two month treatment): neither hyperaemic nor bleeding; and absence of microulcerative lesions
diarrhoea, daily episodes (ulcerative colitis; end of two month treatment): two
histology test of colon mucosa (ulcerative colitis; end of two month treatment): still showed the presence of inflammatory neutrophil infiltration in the colon mucosa
abdominal pains (ulcerative colitis; end of two month treatment, 6 g/day parenteral with oral vitamin B6): no abdominal pains
ESR (rheumatoid arthritis; end of first month, 6 g/day by infusion with vitamin B6): 42
articulation pains and swelling (rheumatoid arthritis; end of first month, 6 g/day by infusion with vitamin B6 and FANS): less pains at affected articulations, which appeared less swollen
articulation tumescence, pains, morning rigidity (rheumatoid arthritis; end of fourth month of treatment (1 month i.v., then oral 6 g/day)): any articulation tumescence had disappeared and the patient referred neither articulation pains nor morning articulation rigidity
ANA antibody research (rheumatoid arthritis; [3]): negative
Waaler-Rose's reaction (rheumatoid arthritis; [3]): negative
reactive C protein (rheumatoid arthritis; end of fourth month, normal range 0-6, before therapy 15): 2
rheuma test (rheumatoid arthritis; end of fourth month, normal range 0-40, before therapy 105): 21
ESR (rheumatoid arthritis; end of fourth month): 10
fibrinogen (rheumatoid arthritis; end of fourth month, normal range 123-370, before therapy 550): 232
tumor area at rectoscopy and tomography ([1]; end of fifth month of treatment): totally disappeared
tumor area ([1]; end of fourth month of therapy): further reduced
diameter of residual tumor area ([1]; end of third month of magnesium therapy, point at 3 o'clock): 1.5 cm
tumoral tissue at rectum investigation and rectoscopy ([1]; end of third month, 6 g/day, 1 month i.v. then oral, with vitamin B6 1200 mg/day): had disappeared from the whole rectum circumference, except from a point at 3 o'clock
articular pains and cutaneous lesions (pemphigus vulgaris; after one month, 9 g/day by infusion with vitamin B6): less articular pains and cutaneous lesions onto non-erythematous skin
scab lesions and articulation pains (pemphigus vulgaris; end of fourth month (1 month i.v., then oral 9 g/day with vitamin B6)): the trunk and limb scab lesions had disappeared, while scarce lesions were still present on the scalp
articulation pains and skin lesions (pemphigus vulgaris; end of sixth month of treatment): the articulation pains had disappeared at all, as well as any skin lesions
